What was measured:
[1] = test system: A549 human lung cancer cells; test: Gene expression profiling on Affymetrix U133A microarrays, plateau phase A549 cultures; format: cell-based; settings: 50 μM MGd
Description: Methods: A549 human lung cancer cells (6.5×10^5 cells per T-162 flask in 45 mL complete RPMI 1640 medium) were seeded 10 days prior to treatment of non-cycling plateau phase cultures with MGd. At 4, 12, or 24 hours prior to RNA isolation, MGd (50 μM final concentration) or control (5% mannitol) solution was added to the cultures. Each time course experiment was performed in triplicate. After incubation, all cultures were washed once with PBS and total RNA was subjected to analysis on Affymetrix U133A microarrays, designed to interrogate the relative abundance of over 15,000 human genes.
We used Microarray Suite version 5.0 software (Affymetrix) to generate raw gene expression scores and normalized the relative hybridization signal from each experiment. All gene expression scores were set to a minimum value of one hundred in order to minimize noise associated with less robust measurements of rare transcripts. The permutation-based significance analysis of microarrays (SAM) was used to determine genes differentially expressed in response to MGd treatment compared to the control 5% mannitol-treated cultures (0.125% final) at each time point. We report all genes at least 2-fold differentially expressed with a less than a 1% False Discovery Rate (FDR) in response to MGd treatment (FIG. 10).

[2] = test system: metallothionein gene family members and ZnT1; test: Northern blot analysis, Ramos cultures; format: cell-based; settings: 6 hours
Description: Methods: Northern Blot Analysis—Plateau phase cultures of A549 cells were prepared as described above, except that T-25 flasks were used, and the number of cells initially plated scaled accordingly. Cultures were treated with 50 μM MGd, 5 μM Gd(OAc)3 or 5% mannitol for 4 hours, whereupon cultures were washed twice with PBS and RNA harvested as above. Alternatively, 7-day plateau phase A549 or PC3 cultures were treated with 50 μM MGd, 50-100 μM Zn(OAc)2, 50 μM CdCl2 or 5% mannitol for 24 hours (A549) or 4 hours (PC3) prior to washing and RNA analysis. Exponential phase Ramos cultures were treated for 6 hours. Northern blots were conducted and analyzed. Radio labeled metallothionein probe, designed to bind to a 113-bp region of 3′-UTR sequences from multiple metallothionein gene family members, was generated using 5′-[…]-3′ (forward) and 5′-[…]-3′ (reverse) PCR primers and the NEBlot kit (New England Biolabs, Inc.). Radio labeled ZnT1 probe was generated in a similar fashion using 5′-[…]-3′ (forward) and 5′-[…]-3′ (reverse) primers.

## CC(=O)[O-].CC(=O)[O-].CCc1c(CC)c2cc3nc(cnc4cc(OCCOCCOCCOC)c(OCCOCCOCCOC)cc4ncc4nc(cc1[n-]2)C(CCCO)=C4C)C(C)=C3CCCO.O.[Gd+3] [MGd, Motexafin gadolinium]
[1]; all three time points
  hbc647 transcript (likely 3′-UTR of ZnT1): up-regulated
[1]; all time points
  Metallothionein isoform transcripts (microarray): up-regulation
[2]
  Expression of metallothionein family members and ZnT1: increased

Source: patent publication US20090197853A1, “METHODS AND COMPOSITIONS OF TREATING CANCER” (priority 2005, published 2009)
